Laboratory results: ChEMBL document CHEMBL5465560, “Selectivity Literature for EUbOPEN Chemogenomic Library” (2024)

Legend:
[1] = biological target: Serine/threonine-protein kinase pim-1 (Homo sapiens, UniProt P11309); assay: Selectivity interaction (KinomeScan (DiscoverX)) EUB0001049a PIM1; settings: at 1 µM
[2] = biological target: T1, Mitogen-activated protein kinase kinase kinase 6 (Homo sapiens) (UniProt O95382); assay: Selectivity interaction (KinomeScan (DiscoverX)) EUB0001049a MAP3K6; settings: at 1 µM
T1 sequence (whole entry): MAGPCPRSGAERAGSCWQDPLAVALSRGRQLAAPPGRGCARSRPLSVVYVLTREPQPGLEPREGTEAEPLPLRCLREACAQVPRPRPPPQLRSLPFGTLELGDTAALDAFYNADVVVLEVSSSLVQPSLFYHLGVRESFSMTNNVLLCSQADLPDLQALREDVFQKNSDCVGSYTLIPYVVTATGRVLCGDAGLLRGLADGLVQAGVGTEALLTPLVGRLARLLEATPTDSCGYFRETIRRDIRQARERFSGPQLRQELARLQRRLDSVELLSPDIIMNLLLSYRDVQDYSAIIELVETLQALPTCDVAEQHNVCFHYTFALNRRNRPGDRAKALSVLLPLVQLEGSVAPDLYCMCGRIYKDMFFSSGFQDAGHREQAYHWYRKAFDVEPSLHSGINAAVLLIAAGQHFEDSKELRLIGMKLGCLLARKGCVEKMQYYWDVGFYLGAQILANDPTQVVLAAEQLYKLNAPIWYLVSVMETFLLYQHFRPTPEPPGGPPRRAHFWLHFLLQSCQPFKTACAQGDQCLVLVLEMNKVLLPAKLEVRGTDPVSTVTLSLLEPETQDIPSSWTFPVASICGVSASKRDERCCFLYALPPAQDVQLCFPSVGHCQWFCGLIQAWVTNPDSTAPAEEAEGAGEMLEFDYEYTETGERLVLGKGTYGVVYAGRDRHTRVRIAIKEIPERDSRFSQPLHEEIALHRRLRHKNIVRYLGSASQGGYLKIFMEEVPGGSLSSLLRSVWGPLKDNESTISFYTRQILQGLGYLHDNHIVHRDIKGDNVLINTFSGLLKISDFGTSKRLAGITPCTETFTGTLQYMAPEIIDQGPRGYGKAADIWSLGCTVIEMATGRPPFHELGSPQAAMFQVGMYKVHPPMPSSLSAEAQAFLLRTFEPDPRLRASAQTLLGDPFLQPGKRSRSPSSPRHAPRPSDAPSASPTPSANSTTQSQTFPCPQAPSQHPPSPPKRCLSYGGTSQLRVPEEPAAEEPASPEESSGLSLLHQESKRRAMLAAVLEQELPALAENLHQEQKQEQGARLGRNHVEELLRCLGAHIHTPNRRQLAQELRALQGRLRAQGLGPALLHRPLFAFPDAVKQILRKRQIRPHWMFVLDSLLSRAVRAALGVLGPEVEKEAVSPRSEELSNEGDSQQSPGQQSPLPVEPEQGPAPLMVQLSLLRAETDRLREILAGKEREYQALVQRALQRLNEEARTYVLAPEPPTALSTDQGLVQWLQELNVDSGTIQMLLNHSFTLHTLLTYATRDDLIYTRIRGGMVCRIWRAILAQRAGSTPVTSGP

[3] = biological target: Phosphatidylinositol 3-kinase catalytic subunit type 3 (Homo sapiens, UniProt Q8NEB9); assay: Selectivity interaction (Kinase panel (KiNativ target engagement assay in Jurkat cells)) EUB0001635a PIK3C3; format: cell-based; settings: Selectivity number of off-targets 0.0, Selectivity number of targets 233.0, Source Knowledge https://www.sciencedirect.com/science/article/pii/S2451945619300674?via%3Dihub, at 1 µM
Phosphatidylinositol 3-kinase catalytic subunit type 3, sequence (Q8NEB9 whole entry, the tested form may be a part): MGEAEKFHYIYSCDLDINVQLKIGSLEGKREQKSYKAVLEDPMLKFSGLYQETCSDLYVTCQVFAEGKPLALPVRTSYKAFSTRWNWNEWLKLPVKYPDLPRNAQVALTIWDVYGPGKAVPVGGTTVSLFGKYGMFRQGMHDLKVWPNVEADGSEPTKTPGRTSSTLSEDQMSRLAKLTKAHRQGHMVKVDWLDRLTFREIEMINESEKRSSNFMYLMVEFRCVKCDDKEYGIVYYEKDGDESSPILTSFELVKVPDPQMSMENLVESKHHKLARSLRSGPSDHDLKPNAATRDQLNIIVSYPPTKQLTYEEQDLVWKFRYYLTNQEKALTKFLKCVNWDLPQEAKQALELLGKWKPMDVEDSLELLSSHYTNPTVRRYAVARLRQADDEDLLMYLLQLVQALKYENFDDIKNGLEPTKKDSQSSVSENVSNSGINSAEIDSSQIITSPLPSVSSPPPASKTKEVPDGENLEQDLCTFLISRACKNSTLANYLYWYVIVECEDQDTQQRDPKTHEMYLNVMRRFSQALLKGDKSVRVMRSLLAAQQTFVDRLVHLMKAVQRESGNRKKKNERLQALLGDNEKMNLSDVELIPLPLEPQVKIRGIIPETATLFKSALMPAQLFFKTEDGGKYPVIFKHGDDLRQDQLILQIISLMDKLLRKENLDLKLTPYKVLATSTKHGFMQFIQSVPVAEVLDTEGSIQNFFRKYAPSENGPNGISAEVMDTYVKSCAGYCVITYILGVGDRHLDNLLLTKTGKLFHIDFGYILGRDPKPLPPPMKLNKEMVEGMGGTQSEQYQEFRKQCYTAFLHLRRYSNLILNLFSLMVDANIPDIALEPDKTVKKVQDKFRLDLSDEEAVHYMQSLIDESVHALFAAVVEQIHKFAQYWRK

[4] = biological target: Phosphatidylinositol 4-phosphate 3-kinase C2 domain-containing subunit alpha (Homo sapiens) (UniProt O00443); assay: Selectivity interaction (Kinase panel (Invitrogen)) EUB0000639a PIK3C2A; settings: at 200 nM
Phosphatidylinositol 4-phosphate 3-kinase C2 domain-containing subunit alpha (Homo sapiens), sequence (O00443 whole entry, the tested form may be a part): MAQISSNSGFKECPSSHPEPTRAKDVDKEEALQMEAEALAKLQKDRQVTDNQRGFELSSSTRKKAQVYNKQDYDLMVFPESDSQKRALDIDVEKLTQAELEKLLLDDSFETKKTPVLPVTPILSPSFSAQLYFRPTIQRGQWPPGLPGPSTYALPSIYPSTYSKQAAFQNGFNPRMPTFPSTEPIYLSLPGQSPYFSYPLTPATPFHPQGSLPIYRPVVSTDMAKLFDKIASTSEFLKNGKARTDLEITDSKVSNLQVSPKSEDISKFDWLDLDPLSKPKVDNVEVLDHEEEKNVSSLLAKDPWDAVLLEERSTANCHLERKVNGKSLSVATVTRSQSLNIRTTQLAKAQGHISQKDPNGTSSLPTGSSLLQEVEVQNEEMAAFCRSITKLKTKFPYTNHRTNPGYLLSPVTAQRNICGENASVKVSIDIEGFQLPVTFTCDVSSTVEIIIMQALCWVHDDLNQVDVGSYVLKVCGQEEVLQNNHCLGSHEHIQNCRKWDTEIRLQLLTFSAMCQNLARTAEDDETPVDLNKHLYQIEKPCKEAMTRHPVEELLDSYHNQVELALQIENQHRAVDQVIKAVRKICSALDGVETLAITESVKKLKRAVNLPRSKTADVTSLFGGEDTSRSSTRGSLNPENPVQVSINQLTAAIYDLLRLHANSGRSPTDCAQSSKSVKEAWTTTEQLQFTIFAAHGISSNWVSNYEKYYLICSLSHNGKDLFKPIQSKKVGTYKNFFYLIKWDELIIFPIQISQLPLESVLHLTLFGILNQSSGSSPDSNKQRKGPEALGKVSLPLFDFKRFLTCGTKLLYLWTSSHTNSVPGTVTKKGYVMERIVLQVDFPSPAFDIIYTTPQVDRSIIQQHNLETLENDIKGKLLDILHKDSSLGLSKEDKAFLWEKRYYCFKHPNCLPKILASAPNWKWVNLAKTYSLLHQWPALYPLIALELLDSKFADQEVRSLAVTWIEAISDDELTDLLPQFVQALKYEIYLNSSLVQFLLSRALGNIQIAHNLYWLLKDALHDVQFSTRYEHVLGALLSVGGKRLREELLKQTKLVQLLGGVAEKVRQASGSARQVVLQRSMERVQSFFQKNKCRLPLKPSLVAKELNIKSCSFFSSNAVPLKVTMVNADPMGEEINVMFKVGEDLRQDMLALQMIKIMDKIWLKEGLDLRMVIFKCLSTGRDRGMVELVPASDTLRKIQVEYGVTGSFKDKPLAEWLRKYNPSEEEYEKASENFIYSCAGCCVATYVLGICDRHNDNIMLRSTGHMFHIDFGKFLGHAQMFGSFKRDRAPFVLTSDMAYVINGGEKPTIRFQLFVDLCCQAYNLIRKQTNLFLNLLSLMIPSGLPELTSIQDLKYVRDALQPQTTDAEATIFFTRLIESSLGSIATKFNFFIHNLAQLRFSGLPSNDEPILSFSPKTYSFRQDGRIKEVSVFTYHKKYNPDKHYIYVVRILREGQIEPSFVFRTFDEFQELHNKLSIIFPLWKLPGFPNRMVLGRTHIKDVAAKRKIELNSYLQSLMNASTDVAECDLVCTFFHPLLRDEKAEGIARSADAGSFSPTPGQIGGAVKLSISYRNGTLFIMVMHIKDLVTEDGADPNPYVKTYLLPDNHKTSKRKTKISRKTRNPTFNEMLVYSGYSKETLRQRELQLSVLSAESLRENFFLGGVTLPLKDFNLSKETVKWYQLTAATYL

[5] = biological target: Serine/threonine-protein kinase 3 (Homo sapiens, UniProt Q13188); assay: Selectivity interaction (ADP-Glo kinase assay) EUB0001619a STK3
Serine/threonine-protein kinase 3, sequence (Q13188 whole entry): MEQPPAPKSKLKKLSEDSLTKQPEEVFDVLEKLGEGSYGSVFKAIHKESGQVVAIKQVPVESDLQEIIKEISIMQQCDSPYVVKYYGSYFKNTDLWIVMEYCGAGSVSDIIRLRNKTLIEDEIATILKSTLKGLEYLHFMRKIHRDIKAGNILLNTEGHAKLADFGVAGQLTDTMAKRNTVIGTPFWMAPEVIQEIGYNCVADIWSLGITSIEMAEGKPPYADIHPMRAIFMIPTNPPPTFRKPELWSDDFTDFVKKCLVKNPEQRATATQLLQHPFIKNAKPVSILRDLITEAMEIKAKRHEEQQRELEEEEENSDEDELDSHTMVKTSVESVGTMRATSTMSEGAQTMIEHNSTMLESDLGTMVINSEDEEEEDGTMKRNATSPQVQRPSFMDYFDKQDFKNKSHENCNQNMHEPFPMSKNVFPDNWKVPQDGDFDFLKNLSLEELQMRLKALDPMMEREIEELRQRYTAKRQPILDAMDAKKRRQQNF

[6] = biological target: G protein-coupled receptor kinase 4 (Homo sapiens) (UniProt P32298); assay: Selectivity interaction (KinomeScan (DiscoverX)) EUB0000655a GRK4; settings: at 10 µM
G protein-coupled receptor kinase 4 (Homo sapiens), sequence (P32298 whole entry, looked up): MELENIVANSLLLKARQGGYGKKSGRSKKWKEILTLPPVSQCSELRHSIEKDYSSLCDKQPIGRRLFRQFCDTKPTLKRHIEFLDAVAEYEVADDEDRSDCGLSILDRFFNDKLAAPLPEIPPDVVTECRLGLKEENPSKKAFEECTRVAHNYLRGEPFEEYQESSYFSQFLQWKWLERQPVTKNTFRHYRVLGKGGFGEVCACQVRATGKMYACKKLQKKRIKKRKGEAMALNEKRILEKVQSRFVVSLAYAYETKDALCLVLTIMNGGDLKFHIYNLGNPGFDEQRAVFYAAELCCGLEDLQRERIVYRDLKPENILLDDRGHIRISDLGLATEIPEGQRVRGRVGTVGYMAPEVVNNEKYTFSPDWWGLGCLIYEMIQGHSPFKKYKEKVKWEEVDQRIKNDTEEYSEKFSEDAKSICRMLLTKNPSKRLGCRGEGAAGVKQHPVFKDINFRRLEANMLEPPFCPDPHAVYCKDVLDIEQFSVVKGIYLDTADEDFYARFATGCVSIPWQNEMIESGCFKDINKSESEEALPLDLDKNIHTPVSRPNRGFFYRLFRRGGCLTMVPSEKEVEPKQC

[7] = biological target: T2, Tyrosine-protein kinase Mer (Homo sapiens) (UniProt Q12866); assay: Selectivity interaction (ProQinase) EUB0000171b MERTK
T2 sequence (whole entry): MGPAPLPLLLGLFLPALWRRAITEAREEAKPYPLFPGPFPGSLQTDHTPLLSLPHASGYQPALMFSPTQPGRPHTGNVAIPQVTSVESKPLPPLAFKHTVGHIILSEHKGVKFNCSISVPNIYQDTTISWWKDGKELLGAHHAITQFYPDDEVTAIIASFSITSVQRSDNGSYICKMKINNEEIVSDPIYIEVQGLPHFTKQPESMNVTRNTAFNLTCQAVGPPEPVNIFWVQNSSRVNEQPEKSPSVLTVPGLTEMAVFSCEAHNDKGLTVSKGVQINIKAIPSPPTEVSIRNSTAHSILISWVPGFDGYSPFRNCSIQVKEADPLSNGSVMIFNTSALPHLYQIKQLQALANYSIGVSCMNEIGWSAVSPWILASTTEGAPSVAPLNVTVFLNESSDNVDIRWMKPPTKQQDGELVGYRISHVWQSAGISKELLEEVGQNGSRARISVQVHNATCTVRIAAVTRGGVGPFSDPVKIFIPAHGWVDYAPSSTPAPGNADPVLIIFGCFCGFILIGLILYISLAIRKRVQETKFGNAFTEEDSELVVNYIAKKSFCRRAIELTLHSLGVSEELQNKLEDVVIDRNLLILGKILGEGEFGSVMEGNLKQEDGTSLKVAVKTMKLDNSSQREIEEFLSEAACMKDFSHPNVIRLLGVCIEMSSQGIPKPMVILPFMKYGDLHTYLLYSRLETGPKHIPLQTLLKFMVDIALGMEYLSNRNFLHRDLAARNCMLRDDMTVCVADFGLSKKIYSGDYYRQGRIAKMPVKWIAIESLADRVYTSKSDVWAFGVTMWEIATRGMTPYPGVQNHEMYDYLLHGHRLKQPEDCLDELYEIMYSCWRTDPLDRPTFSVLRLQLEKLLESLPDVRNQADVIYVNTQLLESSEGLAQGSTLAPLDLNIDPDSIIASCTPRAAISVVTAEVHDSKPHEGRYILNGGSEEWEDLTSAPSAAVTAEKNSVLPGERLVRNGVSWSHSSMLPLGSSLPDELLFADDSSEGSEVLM

[8] = biological target: Tyrosine-protein kinase HCK (Homo sapiens) (UniProt P08631); assay: Selectivity interaction (ProQinase) EUB0000171b HCK
Tyrosine-protein kinase HCK (Homo sapiens), sequence (P08631 2-526 limits assumed): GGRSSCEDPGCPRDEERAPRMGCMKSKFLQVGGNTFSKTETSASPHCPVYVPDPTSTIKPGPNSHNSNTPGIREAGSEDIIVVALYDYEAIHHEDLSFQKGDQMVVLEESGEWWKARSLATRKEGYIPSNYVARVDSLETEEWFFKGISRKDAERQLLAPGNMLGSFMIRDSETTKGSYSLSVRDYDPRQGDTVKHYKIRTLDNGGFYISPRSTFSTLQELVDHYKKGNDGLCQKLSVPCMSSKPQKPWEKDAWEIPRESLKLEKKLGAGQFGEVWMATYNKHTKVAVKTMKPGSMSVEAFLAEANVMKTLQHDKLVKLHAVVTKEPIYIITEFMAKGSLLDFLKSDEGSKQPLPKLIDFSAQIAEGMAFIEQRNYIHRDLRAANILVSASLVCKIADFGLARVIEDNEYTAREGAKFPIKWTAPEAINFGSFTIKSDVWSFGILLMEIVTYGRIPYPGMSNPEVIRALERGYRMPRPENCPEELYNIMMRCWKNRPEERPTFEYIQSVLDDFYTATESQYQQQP

Serine/threonine-protein kinase pim-1, sequence (P11309 whole entry, looked up): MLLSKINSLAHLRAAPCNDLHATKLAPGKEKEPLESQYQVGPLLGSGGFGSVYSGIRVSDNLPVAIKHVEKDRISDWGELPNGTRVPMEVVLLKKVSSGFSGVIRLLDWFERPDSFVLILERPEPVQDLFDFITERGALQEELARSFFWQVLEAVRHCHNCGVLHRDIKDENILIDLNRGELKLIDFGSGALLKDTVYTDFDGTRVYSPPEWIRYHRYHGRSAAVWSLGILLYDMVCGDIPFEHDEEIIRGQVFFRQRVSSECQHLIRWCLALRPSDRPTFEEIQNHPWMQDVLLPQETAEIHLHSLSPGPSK

## COc1cc(Nc2nc(C)cc(-c3cnn4nc(OC)ccc34)n2)cc(C(F)(F)F)c1
[1]
  % of control: 100%
[2]
  % of control: 66%

## C=CC(=O)Nc1ccc(C(=O)Nc2[nH]nc3c2CN(C(=O)N[C@H](CN(C)C)c2ccccc2)C3(C)C)cc1
[3]
  % of engagement: -5.1%

## CC[C@@H]1[C@H](F)C(=O)N[C@@H]1COc1nccc2cc(C(N)=O)c(OC)cc12 [ZIMLOVISERTIB]
[4]
  % of inhibition: -2.62%

## N#Cc1cccc(-c2c[nH]c3ncnc(N4CCOCC4)c23)c1
[5]
  IC50: 76 nM

## CN(C)CCOc1ccc(-c2nc(-c3ccncc3)c(-c3ccc4c(c3)CC/C4=N\O)[nH]2)cc1
[6]
  % of control: 100%

## C=CC(=O)Nc1cccc(C(=O)Nc2ccc(Nc3cc(-c4[nH]c(SC)nc4C)ccn3)cc2)c1
[7]; at 1 µM
  % of control: 76%
[7]; at 5 µM
  % of control: 41%
[8]; at 1 µM
  % of control: 105%
[8]; at 5 µM
  % of control: 88%
